Earlier results in patent US6645390B1, “Composition and method for treating hydrocarbon fires” (Hazard Control Technologies, Inc., priority 1994, dated 2003).

isononanoic acid
solubility in water: slightly soluble | pH (at the concentration of its slight solubility in water): about 3.5
